Data taken from patent US11000491B2, “Amino-aryl-benzamide compounds and methods of use thereof” (HEPANOVA, INC., priority 2017, dated 2021).
“Also recorded” adds a separate entry of the source. Like-named read-outs stand apart in the source and are kept apart here.

Experiments:
Huh7 cells [1] = assay: LD content in Huh7 cells pre-treated with insulin, Oil-Red-O staining, absorbance OD 540 nm; type: cell-based; conditions: Homo sapiens, Huh-7; Huh7 cells pre-treated with 1 mM insulin, 24 h; read-out: LD contents IC50 (Oil-Red-O, OD 540 nm)
Procedure, shortened: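 Huh7 cells, mock-treated or pre-treated with 1 mM insulin, were then exposed to compound at the indicated amounts. Lipid droplets stained with Oil Red O and quantified by absorbance at OD 540 nm.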

SREBP-2 = SREBP-2 expression in cultured primary human hepatocytes; type: cell-based; conditions: Hepatocyte
Procedure, shortened: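 Primary human hepatocytes in culture exposed to a range of HPN-01 derivative concentrations; SREBP-1 and SREBP-2 mRNA expression then measured to assess inhibition.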

Huh7 cells [2] = assay: Lipid droplet (LD) formation in Huh7 cells, BODIPY 493/503 staining, confocal microscopy; type: cell-based; conditions: Homo sapiens, Huh-7, 24 h
Protocol: FIGS. 5A-5D. Effect of HPN-01 on hepatocellular lipid droplet (LD) biogenesis. Heptoma cell line Huh7 cells were treated with various amounts of HPN-01 for 24 hours, either in the absence or in the presence of 400 μM oleic acid, which triggers LD formation, after which intracellular LD contents were observed using a Zeiss confocal microscope with fluorescence. FIG. 5A) Fluorescent analysis of untreated (DMSO) or HPN-01-treated cells in the absence (Top panels) and presence (Bottom panels) of oleic acid. Cellular LD contents were stained using BODIPY 493/503 and are shown in green. Blue indicates cell nuclei. FIG. 5B) LD size of treated and untreated (DMSO) cells, in the presence or absence of oleic acid. FIG. 5C) Mean fluorescence intensity of untreated (DMSO) and treated cells in the absence of oleic acid. FIG. 5D) Mean fluorescence intensity of untreated (DMSO) and treated cells in the presence of oleic acid.
Heptoma cell line Huh7 cells were treated with various amounts of HPN-01 for 24 h, either in the absence or in the presence of 400 μM oleic acid, and observed under a Zeiss confocal microscope. […] LD contents (stained with BODIPY 493/503, in green) were observed under a Zeiss confocal microscope. FIG. 5A. Blue indicates cell nuclei. FIG. 5B. LD size. FIG. 5C. Mean fluorescence intensity. Values were measured using ZEN software by counting 300 cells under each treatment condition.

[3] = Cytotoxicity, inhibition of cell growth; type: cell-based; conditions: human, read-out: CC50 (cytotoxic concentration that will kill half of the treated cells)
Protocol: FIGS. 10A and 10B. Inhibition of hepatocyte growth by HPN-01.
Huh7 cells and primary human hepatocytes were cultured in the presence of varying concentrations of HPN-01, and the inhibition of cell growth was measured.

adiponectin = assay: Secreted adiponectin in differentiated 3T3-L1 cells by ELISA; type: cell-based; conditions: differentiated mouse 3T3-L1 cells
Protocol: Differentiated, mouse 3T3-L1 cells were treated with varying concentrations of HPN-01, and the level of secreted adiponectin measured by ELISA.

[4] = test system: high fat diet-induced NAFLD/NASH mice; assay: High fat diet-induced NAFLD/NASH mice; type: in vivo, C57BL/6 mice
Protocol: FIG. 11. Study design of in vivo HPN-01 effects on high fat diet-induced NAFLD/NASH mice.
Eight-week old C57BL/6 mice were divided into a test group and a control group. The control group mice were fed with normal chow diet (NCD) for 24 weeks. The test group was further divided into a preventing group and a treatment group. In the preventing group, mice were fed with high-fat diet (HFD) and simultaneously treated with 25 mg/kg of HPN-01 or vehicle daily for 16 weeks, after which time the mice were euthanized and evaluated for NAFLD/NASH development. In the treatment group, mice were fed with HFD for 12 weeks to stimulate the development of NAFLD/NASH, and then treated with 25 mg/kg of HPN-01 or vehicle daily for additional 12 weeks. The mice were then euthanized and evaluated for the presence of NAFLD/NASH. This study design is illustrated in FIG. 11.
To determine the effect of HPN-01 on various fat-related molecules in the liver of mice from the study in Example 8, liver tissues were isolated and prepared and the levels of hepatic triglyceride and glycogen were measured.
The livers of mice from the study of Example 8 were also analysed for their levels of cholesterol, SREBP-1, and fatty acid synthesis. […] Likewise, SREBP-1 expression in HFD-fed mice with HPN-01 treatment was 0.52±0.06, a reduction of about 48% when compared with HFD-fed mice receiving only vehicle (FIG. 15B).
Plasma cholesterol and triglyceride levels were determined in blood taken from mice in the study described in Example 8.
Liver tissues from mice in the study of Example 8 were analysed for the expression level of inflammatory cytokines.
Liver tissues from mice in the study of Example 8 were analysed for the expression levels of hepatic molecules involved in the formation of fibrotic scarring.
Liver tissues were then analysed to determine the levels of various pro-fibrotic cytokines. […] The expression level of TIMP2, a fibrosis suppressor, was increased in the presence of HPN-01.

[5] = HFD-fed mice with HPN-01 treatment
[6] = HFD-fed mice, 25 mg/kg daily, 25 mg/kg
[7] = HFD-fed mice, preventing group (25 mg/kg daily, 16 weeks)
[8] = HFD-fed mice, treatment group (HFD 12 weeks, then 25 mg/kg daily 12 weeks)

In the case of NC(=O)c1cc(-c2ccc(Cl)cc2)cc(-c2ccc(S(N)(=O)=O)cc2)c1N [HPN-01, 2-amino-3-(p-sulfonamidophenyl)-5-(p-chlorophenyl) benzamide], the IC50 (Huh7 cells [1]) is reported as 250 nM, the IC50 (SREBP-2) is reported as 3430 nM and the IC50 (Huh7 cells [2]; with oleic acid stimulation (400 μM)) is reported as 270 nM. For the same compound, the IC50 (Huh7 cells [2]; without oleic acid pre-treatment) was 460 nM, the CC50 ([3]; Huh7 cells) was 54300 nM and the CC50 ([3]; primary human hepatocytes) was 77200 nM. For the same compound, the IC50 (adiponectin) was 320 nM, the plasma cholesterol level ([4]; HFD-fed mice receiving HPN-01) was 43.0 ± 15.5 mg/dL and the plasma triglyceride level ([4]; HFD-fed mice receiving HPN-01) was 31.2 ± 4.5 mg/dL. For the same compound, the “hepatic SREBP-1 expression (relative)” value [4, 5] was 0.52±0.06, the hepatic cholesterol level [4, 5] was 3.9±1.1 mg per g tissue and the “hepatic fatty acid synthesis” value [4, 5] was 13.2±2.8 DPMs/mg. The “size and color of liver” value ([4]; HFD-fed mice, 25 mg/kg daily) was “very similar to the control mice”, the “LD deposition and inflammatory infiltration in liver sections (H&E, Oil-red-O)” value ([4]; HFD-fed mice, 25 mg/kg daily, preventing and treatment groups) was “substantially diminished” and the “body weight increase / HFD-triggered obesity” value [4, 6] was “significantly remitted; also recorded: reversed HFD-triggered obesity”. For the same compound, the “fat deposition / visceral fat accumulation” value [4, 6] was “significantly remitted; also recorded: significantly alleviated visceral fat accumulation”, the liver glycogen level [4, 7] was 8.4 ± 1.6 µg/mg and the liver triglyceride level [4, 7] was 67.2 ± 28.3 mg/g. The liver glycogen level [4, 8] was 13.3 ± 3.5 µg/mg, the liver triglyceride level [4, 8] was 75.5 ± 19.8 mg/g and the “decrease of hepatic cholesterol vs vehicle” value ([4]; HFD-fed mice, vs vehicle only) was “about 1.92 fold”. For the same compound, the “decrease of hepatic fatty acid synthesis vs vehicle” value ([4]; HFD-fed mice, vs vehicle only) was “about 3.18 fold”, the “decrease of plasma cholesterol vs vehicle” value ([4]; HFD-fed mice, vs vehicle only) was 2.75 fold and the “decrease of plasma triglyceride vs vehicle” value ([4]; HFD-fed mice, vs vehicle only) was 1.87 fold. The “reduction of hepatic SREBP-1 expression vs vehicle” value ([4]; HFD-fed mice, vs vehicle only) was “about 48%”, the “HFD induction of ITGA2, LOX, TIMP1, IGFBP1, IGFBP2, IGFBP3, IGFBP5, IGFBP6 and FGF-21 in liver” value ([4]; liver tissue mRNA, HFD-fed mice) was “significantly suppressed” and the “HFD induction of hepatic expression of ICAM1(CD54), IL-1B, IL-8, MCP-1, THF-α and LIF” value ([4]; liver tissue, HFD-fed mice) was “substantially abrogated; also recorded: suppressed”. The “expression level of TIMP2 (fibrosis suppressor) in liver” value ([4]; liver tissue, HFD-fed mice) was “increased”.
